Read-outs that look alike come from different tables or passages of the source.
Target: T1, AChE from electric eel (Electrophorus electricus, UniProt O42275)
T1 construct: purchased Sigma (St. Louis, USA)
Experiment: Quantitative colorimetric microplate assay based on Ellman's method for AChE inhibitory activity
Format: biochemical
Conditions: for IC50: read-out: IC50, inhibition of AchE (converted)
Description: The tested concentrations of the samples ranged from 1.56 to 200 μg/mL. Based on the resulting curves, the IC50 values for AChE inhibition were calculated using the respective curves’ equations (Table 1).
Acetylthiocholine iodide (ATCI) and chelidonine were obtained from Fluka (Buchs, Switzerland). Fast Blue B salt (FBS) and silica gel 60 were from Merck (Darmstadt, Germany). The solvents MeOH, EtOAc, CH2Cl2, and CHCl3 were purchased from VWR (Vienna, Austria). Two different buffer systems were used (buffer A: 50 mM Tris-HCl, pH 7.9 containing 0.1% BSA; buffer B: 50 mM Tris-HCl, pH 7.9 containing 0.1 M NaCl and 0.02 M MgCl2·6H2O).
A quantitative colorimetric assay based on Ellman’s method was used to measure the AChE inhibitory activities of the substances. Briefly, in a 96-well plate, 25 μL of 15 mM ATCI, 125 μL of 3 mM DTNB in buffer B, 50 μL of buffer A, and 25 μL of the extract or the isolated substances (from 15.6 μg/mL to 2.0 mg/mL in 10% DMSO) were thoroughly mixed and the absorbance was read at 405 nm five times every 15 s. Finally, 25 μL of AChE (0.22 U/mL in buffer A) were added and the plate was incubated at 25°C for 10 minutes. Then the absorbance was measured again eight times every 15 s. A 10% DMSO solution was used as the negative control. To compensate for any increase in absorbance due to the color of the extracts or spontaneous hydrolysis of the substrate, the absorbance before the addition of the enzyme was subtracted from the absorbance after adding the enzyme. The assay was repeated three times for every concentration.

[1] = n=3, 25°C, 10 min incubation, tested 1.56 to 200 μg/mL
[2] = n=3, same values given in molar unit

T1 sequence (O42275 24-633): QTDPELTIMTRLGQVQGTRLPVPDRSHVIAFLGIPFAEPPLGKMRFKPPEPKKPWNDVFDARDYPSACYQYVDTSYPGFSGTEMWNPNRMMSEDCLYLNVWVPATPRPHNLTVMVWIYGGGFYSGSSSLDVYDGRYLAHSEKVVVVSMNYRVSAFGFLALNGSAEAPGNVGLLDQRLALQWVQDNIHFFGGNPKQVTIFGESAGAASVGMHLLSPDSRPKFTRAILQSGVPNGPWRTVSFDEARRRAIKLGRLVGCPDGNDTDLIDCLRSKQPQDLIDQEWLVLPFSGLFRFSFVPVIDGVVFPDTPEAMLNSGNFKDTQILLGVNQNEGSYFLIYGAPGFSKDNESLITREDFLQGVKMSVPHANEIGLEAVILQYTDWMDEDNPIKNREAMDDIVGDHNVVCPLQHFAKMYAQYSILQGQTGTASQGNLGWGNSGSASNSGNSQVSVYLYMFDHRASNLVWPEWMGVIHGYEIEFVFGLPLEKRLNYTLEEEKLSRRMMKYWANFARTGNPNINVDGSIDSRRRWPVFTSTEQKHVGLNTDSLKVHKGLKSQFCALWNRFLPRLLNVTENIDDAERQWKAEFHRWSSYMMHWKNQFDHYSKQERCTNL

| Compound | AChE inhibitory activity (in words) | IC50 [1] [µM] | IC50 [2] [µM] | times more active than compounds 1, 2 and 4 (AChE inhibition) (comparison of IC50 values) |
| --- | --- | --- | --- | --- |
| C=C[C@]1(C)CC[C@@H](C(C)C(O)C(=O)C=C(C)C)C12C(=O)Oc1cc(OC)ccc1C2=O (stereo partly drawn) [Compound 1, (2′S,5′S)-2′-ethenyl-5′-(3hydroxy-6-methyl-4-oxohept-5-en-2-yl)-7-methoxy-2′-methyl-4H-spiro[chromene-3,1′-cyclopentane]-2,4-dione] | only low activities | 181 | 181 | – |
| C=C[C@]1(C)CC[C@H]([C@@H](C)C(=O)[C@H](O)C=C(C)C)C12C(=O)Oc1cc(OC)ccc1C2=O (stereo partly drawn) [Compound 2, (2′S,5′R)-2′-ethenyl-5′-[(2R,4R)-4-hydroxy-6-methyl-3-oxohept-5-en-2-yl]-7-methoxy-2′-methyl-4H-spiro[chromene-3,1′-cyclopentane]-2,4-dione] | only low activities | 236 | 237 | – |
| CC(C)=CCC/C(C)=C/CC/C(C)=C/CCC(=O)c1ccc(O)cc1O [Compound 3, (4E,8E)-1-(2,4-dihydroxyphenyl)-5,9,13-trimethyltetradeca-4,8,12-trien-1-one] | – | 23.4 | 23.5 | about 10 times |
| CC(C)=CCC/C(C)=C/CC/C(C)=C/Cc1c(O)c2ccc(O)cc2oc1=O [Compound 4, 4,7-dihydroxy-3-[(2E,6E)-3,7,11-trimethyldodeca-2,6,10-trien-1-yl]-2H-chromen-2-one] | only low activities | 201 | 201 | – |

Reference: article PMC3791940, “Compounds from Gum Ammoniacum with Acetylcholinesterase Inhibitory Activity” (Scientia Pharmaceutica, 2013)
